# Reference: patent US20250214942A1, “INHIBITORS OF RECEPTOR INTERACTING PROTEIN KINASE I FOR THE TREATMENT OF DISEASE” (Board of Regents, The University of Texas System, priority 2019, published 2025)
# Read-outs that look alike come from different tables or passages of the source.
# Target: RIPK1 (Homo sapiens (Human), UniProt Q13546)
# Experiment: ADP-Glo kinase assay (RIPK1 activity, conversion of ATP to ADP)
# Format: biochemical
# Details: 5 nM RIPK1, 50 μM ATP, 6 h reaction, read-out: RIPK1 Enzyme Avg IC50
# Experimental: In order to measure RIPK1 activity the ADP-Glo kinase assay (Promega, Catalog #V7002) was used to measure the conversion of ATP to ADP. This enzymatic assay was performed in a 384-well white, Optiplate (Perkin Elmer, Catalog #6007299) with assay buffer consisting of 50 mM HEPES pH 7.5 (Gibco, Catalog #15630-080), 50 mM NaCl (Teknova, Catalog #S0252), 30 mM MgCl2 (Ambion, Catalog #AM9530G), 1 mM DTT (Santa Cruz Biotechnology, Catalog #sc-29089), 0.05% BSA (Sigma, Catalog #A3059-50G) and 0.02% CHAPS (Sigma, Catalog #C5070-5G). Stock solutions of the test compounds were prepared in 100% DMSO (Sigma, Catalog #D2650) and serially diluted 1:3 using 100% DMSO. Compounds were additionally diluted 1:40 in assay buffer, and 2 μL/well were transferred to the assay plate. 4 μL/well (final concentration of 5 nM) of RIPK1 protein (SignalChem, Catalog #R07-1IG-05) diluted in assay buffer and added to the assay plate followed by a 10 minute preincutation at rt. 4 μL/well of ATP (Promega, Catalog #V7002) (final concentration of 50 μM) diluted in assay buffer were then added to the assay plate followed by a 6 h reaction time. Final concentrations of RIPK1 and ATP refer to a 10 μL volume. Luminescence was measured using a BioTek Synergy™ NEO plate reader. IC50 values were calculated using a four-parameter logistic curve fit using Genedata Screener software.
# Chain of RIPK1 (Q13546 1-327): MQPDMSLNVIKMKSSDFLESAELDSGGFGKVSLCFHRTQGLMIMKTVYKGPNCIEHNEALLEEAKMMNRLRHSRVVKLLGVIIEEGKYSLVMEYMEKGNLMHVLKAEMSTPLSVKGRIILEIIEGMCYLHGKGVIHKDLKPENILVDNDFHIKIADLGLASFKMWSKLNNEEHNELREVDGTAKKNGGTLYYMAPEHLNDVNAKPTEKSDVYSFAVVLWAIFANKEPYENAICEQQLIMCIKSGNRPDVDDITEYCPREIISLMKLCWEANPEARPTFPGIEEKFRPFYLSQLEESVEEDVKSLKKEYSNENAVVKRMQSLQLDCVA
Compound,IC50,IC50 (footnote symbol (a))
"Cc1cccc(C2CCCN2C(=O)C23CC(C2)C3)c1 (stereo not shown) [Example 113, bicyclo[1.1.1]pentan-1-yl(2-(m-tolyl)pyrrolidin-1-yl)methanone]",4230 nM,
"COCc1cn(CC23CC(C(=O)N4N=CCC4c4cc(F)cc(F)c4)(C2)C3)nn1 (stereo not shown) [Example 149, (5-(3,5-difluorophenyl)-4,5-dihydro-1H-pyrazol-1-yl)(3-((4-(methoxymethyl)-1H-1,2,3-triazol-1-yl)methyl)-bicyclo[1.1.1]pentan-1-yl)methanone]",3930 nM,
"Cc1cccc(C2CCCN2C(=O)C23CC(O)(C2)C3)c1 (stereo not shown) [Example 120, (3-hydroxybicyclo[1.1.1]-pentan-1-yl)(2-(m-tolyl)-pyrrolidin-1-yl)methanone]",,> 50000 nM
"Cc1nnc(CC23CC(C(=O)N4N=CCC4c4cc(F)cc(F)c4)(C2)C3)o1 (stereo not shown) [Example 20, (5-(3,5-Difluorophenyl)-4,5-dihydro-1H-pyrazol-1-yl)(3-((5-methyl-1,3,4-oxadiazol-2-yl)methyl)bicyclo[1.1.1]pentan-1-yl)methanone]",1110 nM,
"O=C(N1CC(F)CC1c1cccc(F)c1)C12CC(CO)(C1)C2 (stereo not shown) [Example 24, (4-Fluoro-2-(3-fluorophenyl)pyrrolidin-1-yl)(3-(hydroxymethyl)bicyclo[1.1.1]pentan-1-yl)methanone]",38800 nM,
"(5-(3,5-difluorophenyl)-4,5-dihydro-1H-pyrazol-1-yl)(3-((6-fluoro-2-methyl-1H-benzo[d]imidazol-1-yl)-methyl)bicyclo[1.1.1]pentan-1-yl)methanone and (5-(3,5-difluorophenyl)-4,5-dihydro-1H-pyrazol-1-yl)(3-((5-fluoro-2-methyl-1H-benzo[d]imidazol-1-yl)-methyl)bicyclo[1.1.1]pentan-1-yl)methanone [Example 188]",454 nM,
"O=C(Nc1cc(Cl)ncn1)C12CC(C(=O)N3N=CCC3c3cc(F)cc(F)c3)(C1)C2 (stereo not shown) [Example 76, N-(6-chloropyrimidin-4-yl)-3-(5-(3,5-difluorophenyl)-4,5-dihydro-1H-pyrazole-1-carbonyl)bicyclo[1.1.1]-pentane-1-carboxamide]",5390 nM,
"O=C(N1CC(F)CC1c1cccc(F)c1)C12CC(C(O)c3ccccc3)(C1)C2 (stereo not shown) [Example 40, (4-Fluoro-2-(3-fluorophenyl)pyrrolidin-1-yl)(3-(hydroxy(phenyl)methyl)-bicyclo[1.1.1]pentan-1-yl)methanone]",4450 nM,

# Continued, values first:
IC50,IC50 (footnote symbol (a)),Compound
24 nM,,"N#Cc1ccc2c(cnn2CC23CC(C(=O)N4N=CCC4c4cc(F)ccc4F)(C2)C3)c1 (stereo not shown) [Example 53, 1-((3-(5-(2,5-difluorophenyl)-4,5-dihydro-1H-pyrazole-1-carbonyl)-bicyclo[1.1.1]pentan-1-yl)methyl)-1H-indazole-5-carbonitrile]"
570 nM,,"CP(C)(=O)c1cc(OCC23CC(C(=O)N4N=CCC4c4cc(F)cc(F)c4)(C2)C3)ncn1 (stereo not shown) [Example 17, (5-(3,5-Difluorophenyl)-4,5-dihydro-1H-pyrazol-1-yl)(3-(((6-(dimethylphosphoryl)pyrimidin-4-yl)oxy)methyl)bicyclo[1.1.1]pentan-1-yl)methanone]"
1070 nM,,"COC(=O)C12CC(C(=O)N3CC(F)CC3c3cccc(F)c3)(C1)C2 (stereo not shown) [Example 34, Methyl 3-(4-fluoro-2-(3-fluorophenyl)pyrrolidine-1-carbonyl)-bicyclo[1.1.1]pentane-1-carboxylate]"
196 nM,,"O=C(N1N=CCC1c1cc(F)cc(F)c1)C12CC(CN3C(=O)C(F)(F)c4ccccc43)(C1)C2 (stereo not shown) [Example 32, 1-((3-(5-(3,5-Difluorophenyl)-4,5-dihydro-1H-pyrazole-1-carbonyl)-bicyclo[1.1.1]pentan-1-yl)methyl)-3,3-difluoroindolin-2-one]"
392 nM,,"N#Cc1ccc2nn(CC34CC(C(=O)N5N=CCC5c5cc(F)cc(F)c5)(C3)C4)cc2n1 (stereo not shown) [Example 180, 2-((3-(5-(3,5-difluorophenyl)-4,5-dihydro-1H-pyrazole-1-carbonyl)bicyclo[1.1.1]-pentan-1-yl)methyl)-2H-pyrazolo[4,3-b]pyridine-5-carbonitrile]"
